Measurements as given in PubChem BioAssay AID463199 (Broad Institute, 2010).
The source made the active and inactive calls.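 Rule for the calls: active = AC50, the dose giving half-maximal effect, exceeds a fixed cutoff for a compound that rescues yeast growth under heat; inactive = the rest, inconclusive results apart.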

System: S. cerevisiae Burl-1 ts mutant growth, BacTiter-Glo, 38.5C 24 h
Test: restored growth of temperature-sensitive Burl-1 yeast – whole organism, S. cerevisiae, Burl-1 ts mutant, luminescence, counter-screen for SUMOylation pathway inhibitor project, dose response (AID 463199)

| SMILES | AC50 |
| --- | --- |
| COc1cc2c(=O)n(-c3ccc(C)cc3)c(=O)n(CC(=O)c3ccc4c(c3)OCO4)c2cc1OC | > 42 µM (inactive) |
| O=C1CC(c2ccccc2)c2ccc(O)cc2O1 (stereo not given) | > 42 µM (inactive) |
| Cc1ccc(N(C(C)C(=O)O)S(=O)(=O)c2c(C)n[nH]c2C)cc1 (stereo not given) | > 42 µM (inactive) |
| O=S(=O)(Nc1ccc(N2CCOCC2)cc1)c1cccs1 | > 42 µM (inactive) |
| COC(=O)C1CCN(S(=O)(=O)Cc2ccccc2)CC1 | > 42 µM (inactive) |
| O=C(CN1CCN(c2ccccc2F)CC1)Nc1nnc(C(F)(F)F)s1 | > 42 µM (inactive) |
| COc1ccc(C2CC3(CC(C)(C)NC(=S)N3)Oc3cc(O)cc(C)c32)cc1 (stereo not given) | > 42 µM (inactive) |
| COCCCn1c(=O)c2ccccc2n(Cc2ccccc2C)c1=O | > 42 µM (inactive) |
| Cc1ccc(N2C(=O)C3N=NN(CC(=O)N4N=C(c5cccc6ccccc56)CC4c4ccccc4)C3C2=O)cc1 (stereo not given) | > 21 µM (inactive) |
| CC1(C)c2[nH]c3ccccc3c2C[C@H]2C(=O)N(Cc3cccc(F)c3)C(=O)N21 | > 42 µM (inactive) |
| NC(=S)N/N=C/c1cccc(O)c1O | > 42 µM (inactive) |
| COCC(C)n1c(SCC(=O)NNC(=O)c2ccccc2)nc2ccccc2c1=O (stereo not given) | > 42 µM (inactive) |
| CN1C(C(=O)Nc2ccccn2)=C(O)c2sccc2S1(=O)=O | > 42 µM (inactive) |
| O=C(CSc1nc(=O)n2ccccc2n1)N1CCN(c2ccccc2)CC1 | > 42 µM (inactive) |
| COCCCN1C(=O)c2ccc(C(=O)Nc3ccc(OC)cc3OC)cc2C1=O | > 42 µM (inactive) |
| OC(COc1ccccc1)Cn1c2ccccc2c2ccccc21 (stereo not given) | > 42 µM (inactive) |
| COc1ccc(-n2c3c(cc(C(=O)NCC(=O)c4ccccc4)c2=O)C(=O)CC(C)(C)C3)cc1 | > 42 µM (inactive) |
| Cc1ccccc1C(=O)NNC(=O)/C=C\C(=O)O | > 42 µM (inactive) |
| CCOC(=O)c1cnc2oc3ccccc3n2c1=O | > 42 µM (inactive) |
| CC(=O)/C(N)=N/Nc1cccc(Cl)c1 | > 42 µM (inactive) |
| O=C(N/N=C/C(Br)=C/c1ccccc1)c1cccnc1 | > 42 µM (inactive) |
| CCOc1ccc(NC(=O)CN(C)C(=O)c2ccc(OCc3ccccc3)c(OC)c2)cc1OCC | > 42 µM (inactive) |
| COc1ccc(NC(=O)Cn2nnc(C(=O)Nc3ccc(F)c(Cl)c3)c2N)cc1 | > 42 µM (inactive) |
| CNC(=O)c1ccccc1S(=O)c1ccccc1COC(C)=O (stereo not given) | > 42 µM (inactive) |
| CCC(C)NCCOc1ccccc1C (stereo not given) | > 42 µM (inactive) |

| SMILES | AC50 |
| --- | --- |
| CCOC(=O)c1cnc2c(OC)cccc2c1N1CCN(c2ccccc2OC)CC1 | > 42 µM (inactive) |
| Cc1nnc(NC(=O)c2cccc(S(=O)(=O)N3CCCC3)c2)s1 | > 42 µM (inactive) |
| CCOc1ccc(C(=O)NCC2OCCc3ccccc32)cc1 (stereo not given) | > 42 µM (inactive) |
| Cc1cnc(C(=O)OCC(=O)Nc2ccc(C)c(S(=O)(=O)N(C)C)c2)cn1 | > 42 µM (inactive) |
| Cn1c(Cn2nnc3ccccc32)nnc1SCC(=O)c1ccc(F)cc1 | > 42 µM (inactive) |
| CC(C)(C)NC(=O)CN(C(=O)CCC(=O)Nc1nccs1)c1ccc2c(c1)OCCO2 | > 42 µM (inactive) |
| COc1ccccc1-n1c(O)c(/C=C2\C=Nc3ccccc32)c(=O)[nH]c1=O | > 42 µM (inactive) |
| O=C(O)c1cccc(NC(=O)c2cccc(S(=O)(=O)Nc3cccc([N+](=O)[O-])c3)c2)c1 | > 42 µM (inactive) |
| CC(C)(C)n1nnnc1C(c1ccc(Cl)cc1)N(Cc1cccnc1)Cc1ccco1 (stereo not given) | > 42 µM (inactive) |
| COC(=O)c1ccncc1C(=O)Nc1ccc(Oc2ncc(C(F)(F)F)cc2Cl)cc1 | > 42 µM (inactive) |
| Cc1cc(C(F)(F)F)c(C#N)c(=O)[nH]1 | > 42 µM (inactive) |
| Cc1c(NC(=O)C(C)Sc2nnc(-c3ccccc3)o2)c(=O)n(-c2ccccc2)n1C (stereo not given) | > 42 µM (inactive) |
| O=C(C[n+]1ccc(C(=O)N/N=C/c2ccc(Cl)cc2Cl)cc1)c1ccccc1 | > 42 µM (inactive) |
| CCOc1ccc(OCC)c(NC(=O)C2COc3ccccc3O2)c1 (stereo not given) | > 42 µM (inactive) |
| CSc1ncccc1C(=O)NC1CCCc2c1cnn2-c1ccc(C)c(C)c1 (stereo not given) | > 42 µM (inactive) |
| Cc1ccc(/C=N/NC(=O)NC23CC4CC(CC(C4)C2)C3)o1 | > 42 µM (inactive) |
| Oc1c(Br)cc(Br)cc1C=Nc1cccnc1 | > 42 µM (inactive) |
| Cc1ccc(CC2CC(=O)N(c3ccc4c(c3)OCCO4)C2=O)cc1 (stereo not given) | > 42 µM (inactive) |
| CN1C(=O)c2cccc3c(Cl)ccc(c23)C1=O | > 42 µM (inactive) |
| COc1cccc(C(=O)NCc2ccc(-c3nc4ccccc4s3)cc2)c1 | > 42 µM (inactive) |
| CCn1nccc1C(=O)Nc1ccccc1OC | > 42 µM (inactive) |
| O=C(O)Cc1sc(Nc2ccccc2)nc1-c1cccs1 | > 42 µM (inactive) |
| CC1(C)CC(=O)C2=C(C1)OC(N)=C(C#N)C21C(=O)N(CN2CCOCC2)c2ccccc21 (stereo not given) | > 42 µM (inactive) |
| COc1ccc(CCNC(=O)Cn2nnc(-c3ccc(N4CCOCC4)cc3)n2)cc1OC | > 42 µM (inactive) |
| Cn1cnnc1-c1cccc(NS(=O)(=O)c2ccc(N3CCCC3=O)cc2)c1 | > 42 µM (inactive) |
